Source: patent publication US11439615B2, “Lipoxin and lipoxin analogue mediated neuroprotection and treatments” (University Health Network, priority 2017, dated 2022)

How the values were obtained:
HT22 cells = test: MitoTracker Red mitochondrial membrane potential in glutamate challenged HT22 cells; assay type: cell-based; conditions: 1 μM, HT22 cells challenged with glutamate
Description: The mechanism of protection was investigated. […] FIG. 15B show quantification of fluorescent intensity per cell (n=3, *p<0.05, **p<0.01, bars represent S.E.M.).

[1] = tested on: retinal ganglion cell neurons (RGCs); test: Rat chronic IOP (circumlimbal suture) glaucoma model; assay type: in vivo
Description: A method for reliably inducing sustained IOPs in the rodent eye was recently developed by Liu et al (55, 56). In this minimally invasive approach, a circumlimbal suture is placed to induce chronic ocular hypertension. An advantage of this strategy is that specific IOPs can be targeted and monitored by rebound tonometry, improving the consistency of results. In addition, following suturing elevated IOPs can be maintained for as long as 15 weeks (55). The model reproduces key features of glaucoma, such as; progressive and preferential decline in RGC function starting by week 8, gradual loss of the retinal nerve fiber layer (RNFL) by week 12, and RGC death by week 15, with minimal overt inflammation (55, 57). In the experiments, circumlimbal sutures were placed in the randomized right or left eyes of anesthetized rats using a sterile 8-0 nylon suture. IOP was measured twice a week, and only animals showing sustained elevated IOP over 21 mmHg for the duration of the experiment were included in the analyses. The delivery and dosage of LXB4 was based on previous publications (58-60). Briefly, LXB4 or vehicle were administered starting from week 8 on alternate days. Due to the unstable nature of lipoxins, a hybrid approach was taken to ensure consistent delivery, including both IP delivery (1 μg) and topically to each eye (100 ng). ERG was measured monthly to assess RGC functional changes using the positive scotopic threshold response (pSTR), which has been used to measure the impact of elevated chronic IOP in rats (55, 61). In addition, RNFL and total retinal thickness were quantified once a month using optical coherence tomography (OCT). After 15 weeks, animals were euthanized and RGC numbers were counted on middle and peripheral quadrants of retinal flatmounts following immunofluorescent staining for the RGC marker BRN3a as above.
Therapeutic LXB4 treatment rescues RGC function in a chronic IOP dependent glaucoma model. To assess whether LXB4 action extends beyond acute stress models, it was investigated if it provides RGC protection in a chronic model more relevant to human neurodegenerative disease. For this purpose a recently described rat perilimbal suture model of glaucoma was used, in which moderately elevated intraocular pressure (IOP) can be consistently maintained over 15 weeks (55, 57). Elevated IOP is the primary clinical glaucoma risk factor, and this model results in similar compromised RGC function, reduced nerve fiber layer (NFL) thickness, and death of RGCs by week 15 (55). […] Therefore, this time point was chosen to initiate an experiment in which therapeutic treatment with LXB4 or vehicle was administered to sutured rats starting at week 8, with longitudinal and pathological assessment of RGC function and survival (FIG. 6A).
LXB4 or vehicle treatment of sutured rats was initiated after 8 weeks of elevated IOP, and was delivered on alternate days until week 15. A control group was treated with vehicle only. Additionally, for each rat increased IOP was induced in the unilaterally, with the contralateral eye serving as control. IOP was monitored twice weekly throughout the experiment. As functional and structural endpoints, electroretinograms (ERG) and optical coherence tomography (OCT) were measured at week 0 (before placing the suture), and on weeks 4, 8, and 12, and 15 of elevated IOP.
In vehicle eyes there were 35% and 30% fewer BRN3a positive RGCs in sutured eyes compared to contralateral controls in the […], respectively (FIG. 7A-FIG. 7B).

**Q.** `CCCCC[C@H](O)[C@H](O)/C=C/C=C/C=C\C=C\[C@@H](O)CCCC(=O)O` [LXB4, 5S,14R,15S-trihydroxy-6E,8Z,10E,12E-eicosatetraenoic acid] was tested. Which “glutamate induced increase in mitochondrial membrane potential (MitoTracker Red)” value (HT22 cells) did it give?
**A.** Its value is “blocked the glutamate induced increase in mitochondrial membrane potential”.

**Q.** What about the “RGC function, positive scotopic threshold response (pSTR, ERG)” value ([1]; IP 1 μg and topical 100 ng on alternate days from week 8 to 15, by week 12, vs vehicle) of the same compound?
**A.** The value was “significant recovery”.

**Q.** What about the “IOP levels compared to vehicle treated group” value ([1]; measured twice weekly throughout) of the same compound?
**A.** Its value is “did not differ”.

**Q.** And the “a-wave (photoreceptor) and b-wave (bipolar cell) ERG signals” value ([1]; treatment week 8 to 15)?
**A.** Its value is “no LXB4 effects”.

**Q.** What about the “total retinal thickness (OCT)” value ([1]; treatment week 8 to 15) of the same compound?
**A.** Its value is “not affected”.

**Q.** And the “RNFL thickness loss (OCT)” value ([1]; treatment week 8 to 15, by week 15, vs vehicle)?
**A.** The value was “partially rescued”.

**Q.** And the “BRN3a positive RGCs on retinal flatmounts, inner and outer retina” value ([1]; week 15, vs vehicle)?
**A.** Its value is “significant rescue of RGCs”.
